Assay [1] addresses T1, rMaBGA (Marinomonas sp. BSi20584, UniProt Z9SNG8Y577).
T1 construct: predicted signal peptide (first 28 aa) removed; codon-optimised, pET-28a(+), E. coli BL21(DE3), Ni-NTA purified, tag not reported cut; about 100 kDa on SDS-PAGE
T1 sequence (Z9SNG8Y577 29-897): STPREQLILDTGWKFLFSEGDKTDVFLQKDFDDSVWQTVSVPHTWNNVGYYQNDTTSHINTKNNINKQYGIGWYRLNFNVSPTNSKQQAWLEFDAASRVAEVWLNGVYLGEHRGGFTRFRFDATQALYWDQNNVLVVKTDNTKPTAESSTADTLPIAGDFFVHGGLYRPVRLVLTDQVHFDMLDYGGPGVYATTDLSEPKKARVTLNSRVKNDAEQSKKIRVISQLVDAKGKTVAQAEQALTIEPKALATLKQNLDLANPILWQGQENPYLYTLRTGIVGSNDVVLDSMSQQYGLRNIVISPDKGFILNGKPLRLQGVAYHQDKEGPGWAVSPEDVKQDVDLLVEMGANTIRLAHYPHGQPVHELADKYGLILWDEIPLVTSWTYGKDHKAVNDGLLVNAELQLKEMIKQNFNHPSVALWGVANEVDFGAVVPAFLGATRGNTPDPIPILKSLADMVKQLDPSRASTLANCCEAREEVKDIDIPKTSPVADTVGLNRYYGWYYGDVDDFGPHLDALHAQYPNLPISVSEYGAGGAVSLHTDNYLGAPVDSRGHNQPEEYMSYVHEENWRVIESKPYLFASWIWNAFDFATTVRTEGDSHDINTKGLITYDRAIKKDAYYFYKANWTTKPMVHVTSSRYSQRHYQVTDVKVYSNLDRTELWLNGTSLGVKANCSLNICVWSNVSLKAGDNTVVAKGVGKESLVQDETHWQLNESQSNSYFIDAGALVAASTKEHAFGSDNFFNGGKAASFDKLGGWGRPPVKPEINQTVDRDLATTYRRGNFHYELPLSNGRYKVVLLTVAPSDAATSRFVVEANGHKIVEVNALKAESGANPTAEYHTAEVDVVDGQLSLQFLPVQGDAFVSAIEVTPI
Description: steady-state kinetics, nonlinear Michaelis-Menten fit; galactose by coupled enzymatic assay. The assay is classed as biochemical. Particulars: pH and temperature not stated. The source says:
steady-state kinetics, nonlinear Michaelis-Menten fit; galactose by coupled enzymatic assay on rMaBGA

In assay [2] the target is T1, rMaBGA. Description: steady-state kinetics, nonlinear Michaelis-Menten fit; o-nitrophenol absorbance at […] nm. The assay is classed as biochemical. Particulars: 0.1–10 mM substrate; standard assay 10 mM PBS, 30 °C (not restated for kinetics).

By Km is commonly meant the concentration of substrate that gives half-maximal velocity. On to `CC(=O)N[C@H]1C(O)O[C@H](CO)[C@@H](O)[C@@H]1O[C@@H]1O[C@H](CO)[C@H](O)[C@H](O)[C@H]1O` (stereo partly drawn) [Galβ-(1,3)-GlcNAc], for which the Km in assay [1] (1–40 mM substrate) came to 2110 ± 484 µM. For the compound `CC(=O)N[C@H]1C(O)O[C@H](CO)[C@@H](O[C@@H]2O[C@H](CO)[C@H](O)[C@H](O)[C@H]2O)[C@@H]1O` (stereo partly drawn) [Galβ-(1,4)-GlcNAc], the Km in assay [1] (1–50 mM substrate) was found to be 7020 ± 1180 µM.

As for `O=[N+]([O-])c1ccccc1O[C@@H]1O[C@H](CO)[C@H](O)[C@H](O)[C@H]1O` [ONPG], the Km in assay [2] came to 294 ± 44 µM.

These data come from paper PMC10608614, “Biochemical Insights into a Novel Family 2 Glycoside Hydrolase with Both β-1,3-Galactosidase and β-1,4-Galactosidase Activity from the Arctic” (Marine Drugs, 2023).
